The experiment relates to Chlamydomonas reinhardtii, Nile Red lipid fluorescence, 72 h. As to the kind of experiment: compounds raising TAG storage in Chlamydomonas – qHTS, Chlamydomonas reinhardtii, dose response (AID 1159536). Background: In qHTS, concentration-response curves come from the screen itself.

Inconclusive results are not listed. The source made the active and inactive calls. The rule behind the calls is not given here.

The EC50 is the concentration giving half of the maximal effect.

For `COc1cc(C)nc(NCc2ccccc2)n1`, the EC50 was 1.33 µM. Regarding `CN1CCCN(CC2=CC[C@H]3C[C@@H]2C3(C)C)CC1`, the EC50 was 10.1 µM. With `CN1CCN(Cc2cccc(Oc3ccccc3)c2)CC1`, the EC50 is 9.98 µM.

With `CC(C)(Oc1ccc(Cl)cc1)C(=O)N1CCN(c2ccc(F)cc2)CC1`, the EC50 was 2.13 µM (inactive).

Consider `CC(=O)Nc1ccc(S(=O)(=O)Nc2cc([N+](=O)[O-])ccc2C)cc1`, for which the EC50 was 3.21 µM (inactive). As to `Cc1ccc(C(C)C)cc1OCCOCCN1CCOCC1`, the EC50 is 2.18 µM. With `Nc1ccc(C(=O)Nc2ccc(Cl)cc2Cl)cc1`, the EC50 was 1.49 µM. For the molecule `Nc1ccc(F)cc1C(=O)c1ccccc1`, the EC50 is 7.05 µM. As to `CN1CCN(CCCOc2cc(Cl)ccc2Cl)CC1`, the EC50 was 14.1 µM.

For `O=[N+]([O-])c1ccc(CNC2CCCC2)cc1`, the EC50 was 0.645 µM. Turning to `Cc1cccc(-c2cc(NC(=O)c3ccc([N+](=O)[O-])cc3)n[nH]2)c1`, the EC50 is 6.94 µM. For `CCN1CCN(Cc2ccc(N(CC)CC)cc2)CC1`, the EC50 was 0.498 µM. With `c1ccc(CCN2CCN(c3ccccc3)CC2)cc1`, the EC50 is 0.157 µM.

As for `Cc1ccc(C(=O)Nc2ccc(Cl)cc2C)cc1C`, the EC50 was 16.6 µM (inactive). The value for `COc1ccc(C(=O)Nc2sc3c(c2C(N)=O)CCC(C)C3)c(OC)c1` (centres undefined) was 15.8 µM (inactive); that for `CC1CCN(S(=O)(=O)c2ccc(NC(=O)c3cccc([N+](=O)[O-])c3)cc2)CC1` was 2.7 µM. For `O=[N+]([O-])c1ccc(CN2CCN(Cc3cc(Br)ccc3O)CC2)cc1`, the EC50 was 2.47 µM.

In the case of `O=S(=O)(c1ccc(F)cc1)N1CCN(C2CCCCC2)CC1`, the EC50 is 10.2 µM.

Turning to `C1=CC2CC1CC2CN1CCN(Cc2ccccc2)CC1` (centres undefined), the EC50 is 6.19 µM.

For the molecule `O=[N+]([O-])c1ccc(C(O)CN2CCN(Cc3ccccc3)CC2)cc1` (centres undefined), the EC50 is 12.6 µM. The same measure for `Cc1cccc(N2CCN(Cc3ccc([N+](=O)[O-])cc3)CC2)c1C`: 10.9 µM; for `Cc1cc(Br)ccc1OCCCN1CCN(C)CC1`: 2.18 µM. For `Cn1c(SCC(=O)NCc2ccccc2)nnc1-c1ccc(C(C)(C)C)cc1`, the EC50 is 7.31 µM (inactive). On to `O=[N+]([O-])c1ccc(CNC2CCCCCC2)cc1`, for which the EC50 is 1.88 µM. Take `Clc1ccc(OCCCN2CCOCC2)c(Br)c1`: the concentration giving a half-maximal response (EC50) is 10.5 µM. Turning to `CCc1ccc(CN2CCN(CC)CC2)cc1`, the concentration giving a half-maximal response (EC50) was 4.68 µM.

As for `Oc1ccc(CN2CCN(Cc3ccccc3)CC2)cc1`, the EC50 is 11.2 µM. Consider `Cc1ccc(N2CCN(C3CCCCCC3)CC2)cc1`, for which the EC50 was 0.649 µM. For the molecule `Oc1ccc(CN2CCN(c3cccc(Cl)c3)CC2)cc1`, the EC50 was 0.0276 µM.

Turning to `O=C(Nc1ccc([N+](=O)[O-])cc1)c1c(F)c(F)c(F)c(F)c1F`, the EC50 is 1.36 µM (inactive). In the case of `COc1cc(CN2CCN(Cc3ccc([N+](=O)[O-])cc3)CC2)cc(OC)c1`, the EC50 was 3.78 µM. As for `CC(C)(Oc1ccc(Cl)cc1)C(=O)Nc1ccc(Br)cc1F`, the EC50 is 1.81 µM (inactive).

In the case of `CC1CCCN(C2CCN(S(=O)(=O)c3ccc(F)cc3)CC2)C1` (centres undefined), the EC50 is 13.1 µM.

For `CC1(C)CC(NC(=O)Cc2ccccc2[N+](=O)[O-])CC(C)(C)N1`, the EC50 is 10.3 µM (inactive). The same measure for `NC(=O)c1cc(-c2ccccc2)sc1NC(=O)c1ccc(OC(F)F)cc1`: 0.155 µM; for `Clc1ccccc1OCCCCN1CCOCC1`: 5.38 µM; for `CS(=O)(=O)N1CCN(C2C3CC4CC(C3)CC2C4)CC1` (centres undefined): 4.68 µM. On to `O=C1CC(N2CCc3ccccc3C2)C(=O)N1c1ccc([N+](=O)[O-])cc1` (centres undefined), for which the EC50 is 15.7 µM (inactive). The same measure for `OC(CNCCc1ccccc1)c1ccccc1` (centres undefined): 6.91 µM; for `Cc1ccc(C(=O)Nc2ccc3oc(-c4ccncc4)nc3c2)cc1C`: 1.6 µM. For the molecule `Cc1ccc(C(C)C)cc1OCCCCN1CCOCC1`, the 50% effective concentration (EC50) was 4.01 µM. The value for `Clc1cc(Br)ccc1OCCCN1CCOCC1` was 4.43 µM; that for `Cc1cc(Cl)c(OCCOCCN2CCN(C)CC2)c(Br)c1` was 3.1 µM; that for `CC1CCC(N2CCN(c3ccccc3)CC2)C1` (centres undefined) was 0.629 µM. Consider `O=[N+]([O-])c1ccc(CN2CCN(C3CC4CCC3C4)CC2)cc1` (centres undefined), for which the EC50 is 2.53 µM. For `Cc1cc(C)c(S(=O)(=O)NCCCN2CCOCC2)cc1Br`, the EC50 was 0.769 µM. The same measure for `CC(CCc1ccc(O)cc1)NC1C2CC3CC(C2)CC1C3` (centres undefined): 2.74 µM; for `CCCCOc1ccc(CN2CCN(c3ccc([N+](=O)[O-])cc3)CC2)cc1`: 2.7 µM. Turning to `CC(C)(C)c1ccc(OCC(O)CN2CCN(CCO)CC2)cc1` (centres undefined), the EC50 is 1.29 µM. The value for `Cc1cc(Br)ccc1OCCCCN1CCCC1` was 2.71 µM; that for `Cc1ccc(C)c(N2CCN(C3CCCCCC3)CC2)c1` was 10 µM. For the molecule `Cc1ccc(OCCCN2CCOCC2)c(C)c1`, the EC50 was 10.3 µM. `Clc1ccc(CN2CCCCCC2)cc1`: the EC50 is 2.05 µM. The same measure for `COc1ccccc1NC(=O)N1CCN(c2ccccn2)CC1`: 4.11 µM; for `O=C(Nc1ccccc1)Nc1ccccc1C(=O)N1CCOCC1`: 22.2 µM (inactive). Take `Cc1cccc(-c2noc(COc3ccc(Br)cc3)n2)c1`: the EC50 is 9.11 µM (inactive). On to `COc1ccc(CN2CCN(Cc3ccccc3)CC2)c(OC)c1OC`, for which the EC50 is 11.6 µM. The same measure for `CN(CC(O)COc1ccc(F)cc1)C1CCCCC1` (centres undefined): 11.2 µM; for `CC(C)NC(=O)c1ccccc1NC(=O)c1ccc(Br)cc1`: 1.01 µM. For the molecule `Clc1ccc(N2CCN(Cc3ccsc3)CC2)cc1`, the EC50 was 1.27 µM.

As to `COc1ccc(C(=O)c2ccc(N3CCN(C)CC3)c([N+](=O)[O-])c2)cc1`, the EC50 was 1.27 µM (inactive). On to `O=C(O)C1C2C=CC(O2)C1C(=O)Nc1ccccc1F` (centres undefined), for which the EC50 was 14.8 µM (inactive). Turning to `O=C(CN1CCCCC1)Nc1ncc(Cc2ccc(F)cc2)s1`, the EC50 is 0.0585 µM (inactive). Consider `CN1CCN(CCCOc2ccc(Br)cc2)CC1`, for which the EC50 was 9.74 µM. On to `COc1ccc(CN2CCN(C/C=C/c3ccccc3)CC2)cc1`, for which the EC50 was 6.56 µM. The same measure for `Clc1ccc(OCCCCN2CCCC2)c(Br)c1`: 2.55 µM. Turning to `O=S(=O)(c1ccc(Cl)c(Cl)c1Cl)N1CCN(c2ccc(F)cc2)CC1`, the EC50 was 0.0144 µM (inactive). In the case of `Cc1ccccc1N1CCN(Cc2ccc(F)cc2)CC1`, the EC50 is 1.35 µM.

As for `CC(=O)c1nc2cc([N+](=O)[O-])ccc2n1Cc1ccccc1`, the EC50 was 10 µM (inactive).

Regarding `C=CCc1ccccc1OCC(O)CN(C)C1CCCCC1` (centres undefined), the half-maximal effective concentration (EC50) was 4.88 µM. As for `CCCCNc1cc(C)nc(N2CCOCC2)n1`, the EC50 is 13.1 µM. Regarding `Cc1cc(C=O)c(C)n1-c1ccc(Br)cc1F`, the EC50 was 12 µM (inactive). In the case of `CN1CCN(Cc2ccc3c(c2)Cc2ccccc2-3)CC1`, the concentration giving a half-maximal response (EC50) was 9.99 µM. The value for `OC(COc1ccccc1Br)CN1CCCCC1` (centres undefined) was 7.57 µM. Take `COc1ccccc1N1CCN(C2CCN(Cc3cccc(F)c3)CC2)CC1`: the EC50 is 10.6 µM. Regarding `Cc1cc(Br)ccc1OCCOCCN1CCOCC1`, the EC50 is 7.81 µM. The value for `CC(=O)N(C1=C(N(C)C)C(=O)c2ccccc2C1=O)c1ccc(Cl)c(Cl)c1` was 2.65 µM (inactive); that for `Cc1cc(C(C)(C)C)ccc1OCCN1CCN(C)CC1` was 4.43 µM; that for `CCC(CC)C(=O)Nc1ccc(C(=O)Nc2nccs2)cc1` was 1.83 µM (inactive). The value for `Cc1ccc(OCCCCN2CCCCC2)c(C)c1` was 11.3 µM. With `CCc1cccc(OCC(=O)Nc2cc(OC)c(OC)cc2C(=O)O)c1`, the EC50 is 1.38 µM.

In the case of `Oc1ccc(Cl)cc1CN1CCN(Cc2ccccc2)CC1`, the EC50 is 3.56 µM.

Consider `Cc1cc(OCCN2CCN(C)CC2)ccc1C(C)C`, for which the EC50 was 2.56 µM. The same measure for `O=[N+]([O-])c1cccc(CNC2CCCCCC2)c1`: 1.1 µM; for `O=[N+]([O-])c1ccc(CN2CCN(c3ccccc3)CC2)cc1`: 0.175 µM. For the molecule `Cc1c(NC(=O)COc2ccc(Br)cc2)cccc1[N+](=O)[O-]`, the EC50 was 1.37 µM (inactive). The same measure for `Fc1ccc(CN2CCN(c3cccc(Cl)c3)CC2)cc1`: 1.29 µM; for `CC(C)(C)C1CCC(NCc2ccncc2)CC1` (centres undefined): 3.53 µM; for `Cc1cc(C(C)(C)C)ccc1OCCOCCN1CCN(C)CC1`: 0.566 µM (inactive). The same measure for `Fc1ccc(N2CCN(Cc3ccsc3)CC2)cc1`: 8.16 µM; for `CCS(=O)(=O)N1CCN(C2CCCCCCC2)CC1`: 5.99 µM.

For the molecule `COc1cc(Cl)c(S(=O)(=O)NCCCN2CCOCC2)cc1Cl`, the EC50 was 3.61 µM. As for `O=C1C2C3CCC(C3)C2C(=O)N1c1nccs1` (centres undefined), the EC50 is 13.5 µM (inactive). For the molecule `c1ccc(CN2CCN(C3CC4CCC3C4)CC2)cc1` (centres undefined), the 50% effective concentration (EC50) was 10.1 µM. With `Clc1ccc(Cl)c(OCCCCN2CCNCC2)c1`, the EC50 is 5.34 µM.

Regarding `CN1CCN(Cc2ccc(-c3ccccc3Cl)o2)CC1`, the 50% effective concentration (EC50) is 3.34 µM. In the case of `CCC(C)c1ccccc1OCCCN1CCOCC1` (centres undefined), the concentration for a half-maximal effect (EC50) was 3.72 µM.

Consider `COc1ccc(CNCc2ccc(C)cc2)c(OC)c1`, for which the EC50 was 9.94 µM (inactive).

As for `CCN1CCN(C(=O)c2ccc(C(C)(C)C)cc2)CC1`, the EC50 is 1.4 µM.

On to `Cc1cccc(N2CCN(C(=O)C3CCN(CC4CCCCC4)CC3)CC2)c1C`, for which the EC50 was 4.62 µM. Regarding `N#Cc1c(-n2ncnc2-c2cccnc2)sc2c1CCCCC2`, the EC50 was 2.47 µM (inactive). Regarding `Cc1cc(C)c(C)c(OCCCCN2CCOCC2)c1`, the EC50 was 15.1 µM. Turning to `O=[N+]([O-])c1ccc(OCCCCN2CCOCC2)cc1`, the EC50 is 14.2 µM. `CCN(CC(O)COc1ccc(Br)cc1)C1CCCCC1` (centres undefined): the EC50 is 10.2 µM. In the case of `Cc1ccccc1N1CCN(Cc2ccc(O)cc2)CC1`, the EC50 is 10 µM. The same measure for `CCC(C)c1ccc(OCCN2CCCC2)cc1` (centres undefined): 5.17 µM; for `O=C1CC(N2CCC(C(O)(c3ccccc3)c3ccccc3)CC2)C(=O)N1c1ccc(F)cc1` (centres undefined): 13.6 µM (inactive); for `CC1CCC(N2CCN(Cc3ccccc3)CC2)CC1` (centres undefined): 5.57 µM. Regarding `C=C(C)CN(CC)C(=O)C1CCN(Cc2ccc(Cl)cc2)CC1`, the 50% effective concentration (EC50) was 0.642 µM.
